# Results from US9605047B2, “Compositions and methods for treating hypertension” (The Brigham and Women's Hospital, Inc., priority 2012, dated 2017).
# How the values were obtained:
# Sprague-Dawley rats = test: Monocrotaline (MCT) induction of PAH versus vehicle control; format: in vivo, rat
# Method: (§1) Animal model of PAH. Male Sprague-Dawley rats (age 12-14 weeks; Charles River Laboratories) were handled in accordance with US National Institutes of Health guidelines, and all procedures were approved by the local committee at Brigham and Women's Hospital, Harvard Medical School. All surgeries were performed under ketamine/xylazine anesthesia. For the monocrotaline (MCT) model of PAH, rats were fed standard chow and treated with a 0.5 ml intraperitoneal injection of MCT (50 mg/ml) (Sigma-Aldrich) or 0.9% saline as control. Rats were randomized to spironolactone (25 mg/kg/d) (Henry Schein) or vehicle added to the drinking water. For the prevention study, treatment with spironolactone began immediately following administration of MCT and continued for 23-25 days until hemodynamic and tissue analyses were performed. For the reversal study, a second experiment was performed in which rats were randomized to spironolactone or vehicle that was initiated 14 days following the administration of MCT and continued until hemodynamic and tissue analyses were performed 10 days later.
# (§2) Aldosterone and ET-1 levels. […] In selected experiments, cells were pre-treated for 6 h with BQ-788 (1.5 μM) (Sigma-Aldrich) to inhibit the ETB receptor. Aldosterone levels were measured in the medium of cells grown in phenol-free EGM-2 medium supplemented with charcoal-stripped serum, by enzyme immunoassay according to the manufacturer's instructions (Cayman). Results were standardized to cell protein concentration. Levels of aldosterone and ET-1 from plasma and whole lung tissue were measured by enzyme immunoassay according to the manufacturer's instructions (Cayman).
# Echocardiography. Transthoracic two-dimensional, M-mode, and Doppler imaging were performed in rats using a Vevo 2010 ultrasonographic system with a 15-MHz transducer. M-mode and Doppler tracings were acquired at a sweep speed of 200 mm/s following optimization of endocardial visualization and spectral display of Doppler profiles as described previously.^3 M-mode measurements of the right ventricular free-wall thickness were measured in the parasternal short-axis view just below the levels of the aortic valve, as described previously and in accordance to recommendations on M-mode measurement of the RV by the American Society of Echocardiography.^4 All studies were performed by a cardiologist and experienced sonographer who was blinded to the treatment group and was responsible for image analysis.
# (§3) Right heart catheterization. An incision was made in the anterior triangle of the right neck, and a dissection was performed to expose the right internal jugular vein. A 0.04×0.023 in.-sized polyvinylchloridine catheter with a curved end was flushed with heparinized saline and connected to a Grass pressure transducer and Grass model 79 polygraph. A 4.0-proline suture was used to achieve hemostasis at the distal end of the jugular vein prior to insertion of the catheter. The tube was advanced and RV systolic pressure was recorded, which was assumed to be equal to PASP in the setting of a normal pulmonic valve.^3 All right heart catheterizations were performed within 10 min of echocardiography and both procedures were completed within 30 min.
# [1] = system: rats with SU-5416/hypoxia-induced PAH; test: SU-5416/hypoxia-induced PAH, prevention study with eplerenone; format: in vivo, rat; settings: 21 days
# Method: (§4) Sections were stained with a Gomori's Trichrome Staining Kit according to the manufacturer's instruction (Fischer Scientific). Image J™ software (NIH) was used to measure the per cent perivascular collagen deposition of muscularized arterioles with a diameter of 20-50 μm by subtracting the area of the lesser curvature from the greater curvature and dividing by the lesser curvature×100. Collagen was also assessed in tissue sections using Picrosirius Red Stain Kit according to the manufacturer's instruction (Polysciences). Lung sections were visualized under polarized light using an Olympus BX51™ microscope and images were acquired by the Picture Taker™ software package.
# as §3
# (§5) Left heart catheterization and hemodynamics. Following completion of the right heart catheterization, a deep neck dissection was performed to identify the right carotid artery. Without disrupting the carotid sinus or vagus nerve, a cross-clamp was applied to the proximal and distal aspects of the carotid artery. A high fidelity Millar catheter (Millar Instruments, Inc.) was inserted into the carotid artery, the distal clamp was released, and the catheter was advanced past the aortic arch to record central aortic blood pressure. The catheter was then advanced across the aortic valve and left ventricular end-diastolic pressure (LVEDP) were recorded. Cardiac index (CI) was derived from pressure-volume loop analysis as described previously.^5 The pulmonary vascular resistance index was calculated as [(mean pulmonary artery pressure-LVEDP)/CI)] and systemic vascular resistance index was calculated as [(mean arterial pressure-mean right atrial pressure)/CI].
# HPAECs [2] = test: Aldosterone levels in HPAEC culture medium by enzyme immunoassay; format: cell-based, human; settings: pioglitazone 50 μM, 24 h
# [3] = system: ETB-dependent NO. generation in HPAECs; test: NO. metabolites (NO2−, NO3−) in ET-1-stimulated HPAECs; format: cell-based, human
# Method: Cell culture and treatments. Human pulmonary artery endothelial cells (HPAECs) (Lonza) (male donors) were grown to confluence using phenol-free EGM-2 medium supplemented with 5% fetal bovine serum at 37° C., 5% CO2. Cells were passaged twice-weekly using 0.5% trypsin/EDTA, and experiments were performed on cells from passages 4-10. Aldosterone (Steraloids) and ET-1 (1-100 nM) (Sigma-Aldrich) were dissolved in dimethylsufloxide (10 nmol/L) and deoxygenated water, respectively, which served as vehicle controls. Cells were treated with aldosterone (10^−−10^−7 mol/L) for 24 h and in selected experiments co-incubated with the mineralocorticoid receptor inhibitor spironolactone (10 μM/l) (Sigma-Aldrich).
# [4] = system: Sprague-Dawley rats with MCT-induced PAH; test: MCT model of PAH, reversal study (spironolactone started 14 days after MCT); format: in vivo, rat
# Method: as §1, §4, §3, §5
# HPAECs [5] = test: Amplex Red assay of hydrogen peroxide levels in HPAECs; format: cell-based, human; settings: aldosterone-treated HPAECs coincubated with spironolactone (10 μM), 24 h; n=3
# Method: Human pulmonary artery endothelial cells (HPAECs) (Lonza) (male donors) were grown to confluence using phenol-free EGM-2 medium supplemented with 5% fetal bovine serum at 37° C., 5% CO2. Cells were passaged twice-weekly using 0.5% trypsin/EDTA, and experiments were performed on cells from passages 4-10. Aldosterone (Steraloids) and ET-1 (1-100 nM) (Sigma-Aldrich) were dissolved in dimethylsufloxide (10 nmol/L) and deoxygenated water, respectively, which served as vehicle controls. Cells were treated with aldosterone (10^−−10^−7 mol/L) for 24 h and in selected experiments co-incubated with the mineralocorticoid receptor inhibitor spironolactone (10 μM/l) (Sigma-Aldrich).
# [6] = system: Sprague-Dawley rats with MCT-induced PAH; test: MCT model of PAH, prevention study (spironolactone started at time of MCT injection); format: in vivo, rat
# Method: as §1, §2
# NO. metabolites. Nitrite (NO2^−) and nitrate (NO3^−) were measured in cell culture medium containing 2% fetal bovine serum and L-arginine (1 mmol/l) (Sigma-Aldrich) by 1(H)-naphthotriazole fluorescence (Cayman) as previously reported.^1 To measure NO2^− levels in whole lung tissue, lung specimens were harvested from rats and snap frozen in liquid nitrogen. Samples were thawed, homogenized in PBS (pH 7.4), and centrifuged at 14,000×g at 4° C. for 20 min. The supernatant was ultrafiltered using a 30 kDa molecular weight filter (Millpore), and the eluant was used to measure NO2^− levels according to manufacturer's instructions (Cayman).
# Lung tissue histology. Rat lung vessels were perfused with saline through the pulmonary artery and inflated with 10% phosphate-buffered formalin at a pressure of 20 cm H2O through the trachea as described previously.^2 After fixation for 24 h at 4° C., the lung tissue was processed and embedded in paraffin using a Hypercenter™ XP System and Embedding Center (Shandon, Pittsburg, Pa.). The paraffin-embedded lung tissue was cut into 5-μm sections. Hematoxylin and eosin staining was performed according to methods published previously.^3 The 3,3′-diaminobenzidine substrate method was used for smooth muscle α-actin immunohistochemical staining. The number of muscularized arteries with a diameter of 20-50 μm located distal to terminal bronchioles were counted in 20 consecutive fields (100×) per section,^2 and the cross-sectional area was assessed using Image J™ software (NIH).
# as §4
# Echocardiography. […]
# [7] = rats with MCT-induced PAH vs vehicle
# [8] = rats with MCT-induced PAH vs vehicle, 25 days
# [9] = spironolactone 25 mg/kg/d from day 14
# [10] = spironolactone 25 mg/kg/d in MCT-PAH rats
compound,measurement,setting,value
"C[C@H]1C(=O)O[C@@H]2CCN3CC=C(COC(=O)[C@](C)(O)[C@]1(C)O)[C@H]23 [MCT, monocrotaline]",increase in plasma ET-1 levels,Sprague-Dawley rats; MCT rat model of PAH,3 fold
same,right ventricular (RV) free-wall thickness,"Sprague-Dawley rats; MCT-treated rats vs vehicle control 0.58±0.05, n=6",1.1±0.05 mm
same,pulmonary artery systolic pressure (PASP),"Sprague-Dawley rats; MCT-treated rats vs vehicle control 28.3±2.7, right heart catheterization, n=6",89.3±5.3 mm Hg
same,pulmonary artery (PA) flow acceleration time (PAAT),"Sprague-Dawley rats; MCT-treated rats vs vehicle control 35.4±2.6, echocardiography, n=6",14.1 ± 1.2 ms
same,increase in aldosterone levels in lung tissue,Sprague-Dawley rats; [7],172%
same,increase in aldosterone levels in plasma,Sprague-Dawley rats; [7],406%
same,increase in ET-1 levels in lung homogenates,Sprague-Dawley rats; [8],174%
same,increase in ET-1 levels in plasma,Sprague-Dawley rats; [8],286%
COC(=O)[C@@H]1CC2=CC(=O)CC[C@]2(C)[C@@]23O[C@@H]2C[C@@]2(C)[C@@H](CC[C@@]24CCC(=O)O4)[C@H]13 [eplerenone],decrease in perivascular collagen,"[1]; eplerenone 0.6 mg/1 gm standard chow, n=5",67%
same,CI,[1]; eplerenone in chow,without significantly influencing
same,LVEDP,[1]; eplerenone in chow,without significantly influencing
same,MAP,[1]; eplerenone in chow,without significantly influencing
same,SVRi,[1]; eplerenone in chow,without significantly influencing
same,body weight,[1]; eplerenone in chow,without significantly influencing
same,heart rate,[1]; eplerenone in chow,without significantly influencing
same,PVRi,"[1]; eplerenone in chow, vs SU-5416/hypoxia 64.6±21.4, p=0.18, n=3-4",43.9±8.7 mm Hg*min*gm/ml
same,PASP,"[1]; eplerenone in chow, vs SU-5416/hypoxia 80.5±4.9, p=0.048, n=5",61.5±6.5 mm Hg
CCc1ccc(CCOc2ccc(CC3SC(=O)NC3=O)cc2)nc1 (centres unmarked) [pioglitazone],increase in aldosterone levels compared to V,HPAECs [2],365%
CC(=O)S[C@@H]1CC2=CC(=O)CC[C@]2(C)[C@H]2CC[C@@]3(C)[C@@H](CC[C@@]34CCC(=O)O4)[C@H]12 [spironolactone],"NO2^− levels in aldosterone-treated, ET-1-stimulated cells","[3]; coincubation with spironolactone 10 μM, HPAECs",restored
same,increase in NOx levels,"[3]; spironolactone coincubation in aldosterone-treated cells stimulated with ET-1, n=3",87%
same,LVEDP,[4]; [9],without changes
same,MAP,[4]; [9],without changes
same,cardiac index (CI),[4]; [9],without changes
same,heart rate,[4]; [9],without changes
same,indexed systemic vascular resistance (SVRi),[4]; [9],without changes
same,indexed pulmonary vascular resistance (PVRi),"[4]; spironolactone 25 mg/kg/d from day 14, vs V-treated PAH 35.9±3.2, n=4",21.5±3.2 mm Hg*min*g/ml
same,PASP,"[4]; spironolactone 25 mg/kg/d from day 14, vs V-treated PAH 60.3±5.2, n=6",39.5±4.1 mm Hg
same,decrease in levels of perivascular collagen,"[4]; spironolactone 25 mg/kg/d from day 14 for 10 days vs V-treated PAH, n=6",71%
same,abrogation of aldosterone-induced H2O2 accumulation,HPAECs [5],56%
same,body weight,[6]; [10],without significantly decreasing plasma ET-1 levels or influencing
same,left ventricular end-diastolic pressure (LVEDP),[6]; [10],without significantly decreasing plasma ET-1 levels or influencing
same,mean arterial pressure (MAP),[6]; [10],without significantly decreasing plasma ET-1 levels or influencing
same,plasma ET-1 levels,[6]; [10],without significantly decreasing
same,PASP,"[6]; spironolactone 25 mg/kg/d in drinking water, 23-25 days, vs V-treated PAH 89.3±5.2, n=6",69.5±5.4 mm Hg
same,decrease in perivascular collagen deposition (Gomori's trichrome),"[6]; spironolactone 25 mg/kg/d vs V-treated rats with PAH, n=4",77%
same,RV weight,"[6]; spironolactone 25 mg/kg/d, vs V-treated PAH 0.43±0.07, p=0.32, n=5",0.35±0.04 RV weight/LV septum weight
same,RV free-wall thickness,"[6]; spironolactone 25 mg/kg/d, vs V-treated PAH 1.07±0.05, n=6",0.86±0.03 mm
same,PAAT,"[6]; spironolactone 25 mg/kg/d, vs V-treated PAH 14.1±1.2, n=6",22.3 ± 2.2 ms
same,cross-sectional luminal area of vessels,"[6]; spironolactone 25 mg/kg/d, vs V-treated PAH 14.3±0.7, n=5",35.4±1.9 % cross sectional area
same,number of α-actin-stained muscularized distal pulmonary arterioles,"[6]; spironolactone 25 mg/kg/d, vs V-treated PAH 77.7±6.3, n=5",59.7±0.4 muscularized pulmonary arterioles/20 high powered fields
same,nitrite (NO2^−) in lung tissue specimens,"[6]; spironolactone 25 mg/kg/d, vs V-treated PAH 506±86, n=4",759±55 μM/μg protein
